In patent US20060069132A1, “Azolecarboxamide herbicides” (priority 2004, published 2006):

Tests used:
[1] = system: giant foxtail; experiment: Test C pre-/postemergence herbicide test; assay type: in vivo, Setaria faberi; conditions: for Plant response rating (0 = no effect, 100 = complete control), Foxtail, Giant: 125 g ai/ha
In short: (§1)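 Pre/post spray; non-phytotoxic solvent + surfactant. Post-timing 1–4 leaves, 2–18 cm. Read-out: visual % control vs untreated, day 12–14, greenhouse.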

[2] = system: common (oilseed) sunflower; experiment: Test C pre-/postemergence herbicide test; assay type: in vivo, Helianthus annuus; conditions: for Plant response rating (0 = no effect, 100 = complete control), Sunflower: 125 g ai/ha
In short: as §1

[3] = system: johnsongrass; experiment: Test C pre-/postemergence herbicide test; assay type: in vivo, Sorghum halepense; conditions: for Plant response rating (0 = no effect, 100 = complete control), Johnsongrass: 125 g ai/ha
In short: as §1

[4] = system: ducksalad; experiment: Test B flooded paddy test; assay type: in vivo, Heteranthera limosa; conditions: 1000 g ai/ha, scale 0 to 100 (0 no effect, 100 complete control)
In short: (§2)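 Scale 0–100: zero equals no visible effect, 100 complete control, judged by eye relative to controls. Timing: 13 to 15 days in greenhouse post-treatment. Growth stage at spraying: two leaves (paddy) or one to four leaves, 2–18 cm (postemergence).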

[5] = system: rice; experiment: Test C flooded paddy test; assay type: in vivo, Oryza sativa
In short: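 Injury scored visually against controls on a 0 (no effect) to 100 (complete control) scale, 12 to 14 days after treatment in greenhouse. Flooded paddy plants treated at 2-leaf stage; postemergence plants at 1- to 4-leaf stage, 2 to 18 cm tall.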

[6] = system: common ragweed; experiment: Test C pre-/postemergence herbicide test; assay type: in vivo, Ambrosia elatior; parameters: key to Plant response rating, Ragweed: 0 = no effect, 100 = complete control; conditions: for Plant response rating (0 = no effect, 100 = complete control), Ragweed: 125 g ai/ha
In short: as §1

[7] = system: blackgrass; experiment: Test B postemergence herbicide test; assay type: in vivo, Alopecurus myosuroides
In short: as §2

[8] = system: cocklebur; experiment: Test C pre-/postemergence herbicide test; assay type: in vivo, Xanthium strumarium; conditions: for Plant response rating (0 = no effect, 100 = complete control), Cocklebur: 125 g ai/ha
In short: as §1

[9] = 62 g ai/ha, preemergence, scale 0 to 100
[10] = 250 g ai/ha, scale 0-100, preemergence
[11] = 500 g ai/ha, scale 0 to 100 (0 no effect, 100 complete control), visual, 12 to 14 days, preemergence
[12] = 125 g ai/ha, scale 0 to 100 (0 no effect, 100 complete control)
[13] = 250 g ai/ha, scale of 0 to 100, 0 is no effect, 100 is complete control
[14] = 500 g ai/ha, visual rating after 12 to 14 days, scale 0 to 100 (0 no effect, 100 complete control)
[15] = 125 g ai/ha, visual rating, scale 0 (no effect) to 100 (complete control), postemergence
[16] = Postemergence, 500 g ai/ha, scale 0 (no effect) to 100 (complete control)

SMILES: CCn1nc2c(c1C(=O)Nc1cc(C(=O)N(C)C)ccc1F)CCC2(C)C [Compound 352, N-[5-[(dimethylamino)carbonyl]-2-fluorophenyl]-2-ethyl-2,4,5,6-tetrahydro-6,6-dimethyl-3-cyclopentapyrazolecarboxamide]
- Plant response rating (0 = no effect, 100 = complete control), Foxtail, Giant ([1]; preemergence): 60
- pest or weed control at 62 g/ha ([1]; Setaria faberi, pre-emergence, 312 h, 62 g ai/ha, preemergence, scale 0 to 100, read-out: Plant response rating, Foxtail, Giant): 5%
- pest or weed control at 250 g/ha ([1]; Setaria faberi, pre-emergence, 312 h, 250 g ai/ha, scale 0-100, read-out: Plant response rating, Foxtail, Giant): 100%
- pest or weed control at 500 g/ha ([1]; Setaria faberi, pre-emergence, 312 h, 500 g ai/ha, scale 0 to 100 (0 no effect, 100 complete control), visual, 12 to 14 days, read-out: Plant response rating, Foxtail, Giant): 100%
- Plant response rating (0 = no effect, 100 = complete control), Sunflower ([2]; preemergence): 0
- pest or weed control at 62 g/ha ([2]; Helianthus annuus, pre-emergence, 62 g ai/ha, preemergence, scale 0 to 100, read-out: Plant response rating, Sunflower): 0%
- pest or weed control at 250 g/ha ([2]; Helianthus annuus, pre-emergence, 250 g ai/ha, scale 0-100, read-out: Plant response rating, Sunflower): 0%
- pest or weed control at 500 g/ha ([2]; Helianthus annuus, pre-emergence, 500 g ai/ha, scale 0 to 100 (0 no effect, 100 complete control), visual, 12 to 14 days, read-out: Plant response rating, Sunflower): 0%
- Plant response rating (0 = no effect, 100 = complete control), Johnsongrass ([3]; preemergence): 90
- pest or weed control at 62 g/ha ([3]; Sorghum halepense, pre-emergence, 62 g ai/ha, preemergence, scale 0 to 100, read-out: Plant response rating, Johnsongrass): 50%
- pest or weed control at 250 g/ha ([3]; Sorghum halepense, pre-emergence, 250 g ai/ha, scale 0-100, read-out: Plant response rating, Johnsongrass): 90%
- pest or weed control at 500 g/ha ([3]; Sorghum halepense, pre-emergence, 500 g ai/ha, scale 0 to 100 (0 no effect, 100 complete control), visual, 12 to 14 days, read-out: Plant response rating, Johnsongrass): 100%
- pest or weed control at 1000 g/ha ([4]; Heteranthera limosa, 336 h, read-out: Ducksalad plant response rating): 90%
- plant injury at 62 g/ha ([5]; Oryza sativa, 62 g ai/ha, scale 0 to 100, read-out: Rice plant response rating): 20%
- plant injury at 125 g/ha ([5]; Oryza sativa, 125 g ai/ha, scale 0 to 100 (0 no effect, 100 complete control), read-out: Rice plant response rating): 45%
- plant injury at 250 g/ha ([5]; Oryza sativa, 250 g ai/ha, scale of 0 to 100, 0 is no effect, 100 is complete control, read-out: Rice plant response rating): 60%
- plant injury at 500 g/ha ([5]; Oryza sativa, 500 g ai/ha, visual rating after 12 to 14 days, scale 0 to 100 (0 no effect, 100 complete control), read-out: Plant response rating, Rice): 70%
- Plant response rating (0 = no effect, 100 = complete control), Ragweed ([6]; preemergence): 40
- pest or weed control at 62 g/ha ([6]; Ambrosia artemisiifolia, pre-emergence, 62 g ai/ha, preemergence, scale 0 to 100, read-out: Plant response rating, Ragweed): 0%
- pest or weed control at 250 g/ha ([6]; Ambrosia artemisiifolia, pre-emergence, 250 g ai/ha, scale 0-100, read-out: Plant response rating, Ragweed): 50%
- pest or weed control at 500 g/ha ([6]; Ambrosia artemisiifolia, pre-emergence, 500 g ai/ha, scale 0 to 100 (0 no effect, 100 complete control), visual, 12 to 14 days, read-out: Plant response rating, Ragweed): 60%
- pest or weed control at 125 g/ha ([7]; Alopecurus myosuroides, post-emergence, 336 h, 125 g ai/ha, visual rating, scale 0 (no effect) to 100 (complete control), read-out: Blackgrass plant response rating): 10%
- pest or weed control at 500 g/ha ([7]; Alopecurus myosuroides, post-emergence, 336 h, postemergence, 500 g ai/ha, scale 0 to 100, 0 is no effect, 100 is complete control, read-out: Blackgrass plant response rating): 30%
- Plant response rating (0 = no effect, 100 = complete control), Cocklebur ([8]; preemergence): 0
- pest or weed control at 62 g/ha ([8]; Xanthium strumarium, pre-emergence, 312 h, 62 g ai/ha, preemergence, scale 0 to 100, read-out: Plant response rating, Cocklebur): 0%
- pest or weed control at 250 g/ha ([8]; Xanthium strumarium, pre-emergence, 312 h, 250 g ai/ha, scale 0-100, read-out: Plant response rating, Cocklebur): 0%
- pest or weed control at 500 g/ha ([8]; Xanthium strumarium, pre-emergence, 312 h, 500 g ai/ha, scale 0 to 100 (0 no effect, 100 complete control), visual, 12 to 14 days, read-out: Plant response rating, Cocklebur): 30%

SMILES: CCNC(=O)c1cccc(NC(=O)c2nn(C(C)(C)C)nc2C)c1 [Compound 392]
- Plant response rating, Foxtail, Giant [1, 9]: 65
- Plant response rating (0 = no effect, 100 = complete control), Foxtail, Giant ([1]; preemergence): 90
- Plant response rating, Foxtail, Giant [1, 10]: 100
- Plant response rating, Foxtail, Giant [1, 11]: 100
- Plant response rating, Sunflower [2, 9]: 10
- Plant response rating (0 = no effect, 100 = complete control), Sunflower ([2]; preemergence): 50
- Plant response rating, Sunflower [2, 11]: 100
- Plant response rating, Johnsongrass [3, 9]: 85
- Plant response rating (0 = no effect, 100 = complete control), Johnsongrass ([3]; preemergence): 100
- Plant response rating, Johnsongrass [3, 10]: 100
- Plant response rating, Johnsongrass [3, 11]: 100
- Ducksalad plant response rating [4]: 80
- Rice plant response rating ([5]; 62 g ai/ha, scale 0 to 100): 50
- Rice plant response rating [5, 12]: 60
- Rice plant response rating [5, 13]: 75
- Plant response rating, Rice [5, 14]: 75
- Plant response rating, Ragweed [6, 9]: 60
- Plant response rating (0 = no effect, 100 = complete control), Ragweed ([6]; preemergence): 100
- Plant response rating, Ragweed [6, 10]: 100
- Plant response rating, Ragweed [6, 11]: 100
- Blackgrass plant response rating [7, 15]: 20
- Blackgrass plant response rating [7, 16]: 60
- Plant response rating, Cocklebur [8, 9]: 0
- Plant response rating (0 = no effect, 100 = complete control), Cocklebur ([8]; preemergence): 5
- Plant response rating, Cocklebur [8, 10]: 20
- Plant response rating, Cocklebur [8, 11]: 80

SMILES: CCc1nn(C(C)(C)C)nc1C(=O)Nc1cccc(C(=S)N(C)C)c1 [Compound 395]
- Plant response rating, Foxtail, Giant [1, 9]: 95
- Plant response rating (0 = no effect, 100 = complete control), Foxtail, Giant ([1]; preemergence): 100
- Plant response rating, Foxtail, Giant [1, 10]: 100
- Plant response rating, Foxtail, Giant [1, 11]: 100
- Plant response rating, Sunflower [2, 9]: 0
- Plant response rating (0 = no effect, 100 = complete control), Sunflower ([2]; preemergence): 0
- Plant response rating, Sunflower [2, 10]: 50
- Plant response rating, Sunflower [2, 11]: 55
- Plant response rating, Johnsongrass [3, 9]: 95
- Plant response rating (0 = no effect, 100 = complete control), Johnsongrass ([3]; preemergence): 100
- Plant response rating, Johnsongrass [3, 10]: 100
- Plant response rating, Johnsongrass [3, 11]: 100
- Ducksalad plant response rating [4]: 90
- Rice plant response rating ([5]; 62 g ai/ha, scale 0 to 100): 70
- Rice plant response rating [5, 12]: 70
- Rice plant response rating [5, 13]: 70
- Plant response rating, Rice [5, 14]: 75
- Plant response rating, Ragweed [6, 9]: 65
- Plant response rating (0 = no effect, 100 = complete control), Ragweed ([6]; preemergence): 95
- Plant response rating, Ragweed [6, 10]: 100
- Plant response rating, Ragweed [6, 11]: 100
- Blackgrass plant response rating [7, 15]: 20
- Blackgrass plant response rating [7, 16]: 40
- Plant response rating, Cocklebur [8, 9]: 0
- Plant response rating (0 = no effect, 100 = complete control), Cocklebur ([8]; preemergence): 15
- Plant response rating, Cocklebur [8, 10]: 80
- Plant response rating, Cocklebur [8, 11]: 85
